The target of assay [1] is T1, Nitric oxide synthase 3 (Homo sapiens, UniProt P29474).
T1 sequence (P29474 whole entry): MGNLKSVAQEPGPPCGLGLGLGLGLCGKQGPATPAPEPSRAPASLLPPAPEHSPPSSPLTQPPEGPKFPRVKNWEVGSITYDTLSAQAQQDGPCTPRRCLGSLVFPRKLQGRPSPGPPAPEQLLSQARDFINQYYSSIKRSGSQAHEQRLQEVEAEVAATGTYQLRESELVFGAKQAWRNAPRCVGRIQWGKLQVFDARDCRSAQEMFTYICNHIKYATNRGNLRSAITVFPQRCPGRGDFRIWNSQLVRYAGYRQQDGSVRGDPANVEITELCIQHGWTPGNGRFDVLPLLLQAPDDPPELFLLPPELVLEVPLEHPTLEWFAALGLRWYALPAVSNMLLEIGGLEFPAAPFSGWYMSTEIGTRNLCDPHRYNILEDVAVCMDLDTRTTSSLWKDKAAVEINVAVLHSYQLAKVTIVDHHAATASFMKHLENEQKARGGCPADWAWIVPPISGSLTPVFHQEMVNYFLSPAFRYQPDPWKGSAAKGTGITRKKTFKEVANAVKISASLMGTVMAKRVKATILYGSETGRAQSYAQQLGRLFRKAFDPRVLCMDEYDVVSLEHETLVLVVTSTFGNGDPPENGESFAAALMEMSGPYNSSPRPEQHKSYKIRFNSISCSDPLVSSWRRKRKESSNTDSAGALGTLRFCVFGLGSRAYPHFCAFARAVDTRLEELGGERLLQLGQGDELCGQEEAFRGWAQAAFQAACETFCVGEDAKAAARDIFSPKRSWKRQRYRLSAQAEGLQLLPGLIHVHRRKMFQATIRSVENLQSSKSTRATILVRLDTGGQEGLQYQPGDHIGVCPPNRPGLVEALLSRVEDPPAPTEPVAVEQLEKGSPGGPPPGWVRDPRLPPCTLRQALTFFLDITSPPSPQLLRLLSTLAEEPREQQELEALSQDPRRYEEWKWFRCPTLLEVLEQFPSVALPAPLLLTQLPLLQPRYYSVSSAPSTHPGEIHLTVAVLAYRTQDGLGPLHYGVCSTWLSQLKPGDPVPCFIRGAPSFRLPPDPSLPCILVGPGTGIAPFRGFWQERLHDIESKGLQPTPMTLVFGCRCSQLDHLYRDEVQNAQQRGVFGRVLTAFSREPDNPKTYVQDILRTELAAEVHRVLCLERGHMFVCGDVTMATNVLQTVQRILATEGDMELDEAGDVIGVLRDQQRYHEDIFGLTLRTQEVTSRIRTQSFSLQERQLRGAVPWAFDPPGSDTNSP
Put plainly: Inhibition of human recombinant eNOS expressed in Sf9 cells assessed as conversion of [3H]-L-arginine to [3H]-L-citrulline by radiometric method.

For assay [2], the target named is Nitric oxide synthase, inducible (Homo sapiens, UniProt P35228). Nature of the assay: Inhibition of human recombinant iNOS expressed in Sf9 cells assessed as conversion of [3H]-L-arginine to [3H]-L-citrulline by radiometric method.
Chain of Nitric oxide synthase, inducible (P35228 whole entry): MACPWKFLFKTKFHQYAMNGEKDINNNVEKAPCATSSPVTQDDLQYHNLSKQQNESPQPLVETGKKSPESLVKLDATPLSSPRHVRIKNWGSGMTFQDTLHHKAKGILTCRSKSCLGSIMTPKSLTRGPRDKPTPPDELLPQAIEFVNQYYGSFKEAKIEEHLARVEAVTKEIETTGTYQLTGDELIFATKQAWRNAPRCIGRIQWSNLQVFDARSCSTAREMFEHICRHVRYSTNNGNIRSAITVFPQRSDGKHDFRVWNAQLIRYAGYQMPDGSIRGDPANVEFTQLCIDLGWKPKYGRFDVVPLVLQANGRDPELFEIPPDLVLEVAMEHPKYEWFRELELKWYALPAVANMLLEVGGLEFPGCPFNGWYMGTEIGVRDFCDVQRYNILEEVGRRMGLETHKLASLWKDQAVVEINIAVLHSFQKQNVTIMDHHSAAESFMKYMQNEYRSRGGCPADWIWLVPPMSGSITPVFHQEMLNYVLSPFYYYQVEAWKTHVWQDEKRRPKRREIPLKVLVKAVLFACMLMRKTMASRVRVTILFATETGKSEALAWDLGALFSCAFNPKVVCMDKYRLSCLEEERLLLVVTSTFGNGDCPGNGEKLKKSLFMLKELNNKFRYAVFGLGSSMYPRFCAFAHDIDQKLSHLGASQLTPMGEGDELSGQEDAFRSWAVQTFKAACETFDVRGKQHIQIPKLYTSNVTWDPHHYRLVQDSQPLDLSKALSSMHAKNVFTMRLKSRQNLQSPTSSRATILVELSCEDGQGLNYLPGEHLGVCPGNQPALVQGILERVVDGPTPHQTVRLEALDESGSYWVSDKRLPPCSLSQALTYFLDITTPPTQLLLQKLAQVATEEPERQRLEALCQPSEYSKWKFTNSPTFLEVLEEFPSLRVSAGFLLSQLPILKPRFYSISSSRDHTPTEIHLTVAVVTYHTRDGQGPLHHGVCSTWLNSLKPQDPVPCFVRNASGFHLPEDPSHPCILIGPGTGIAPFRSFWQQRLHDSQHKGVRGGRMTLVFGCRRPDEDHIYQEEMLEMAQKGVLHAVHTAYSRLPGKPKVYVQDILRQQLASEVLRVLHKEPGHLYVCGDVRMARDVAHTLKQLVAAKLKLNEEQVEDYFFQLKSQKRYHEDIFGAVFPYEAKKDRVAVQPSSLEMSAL

The structures appear in SMILES notation.

For the compound `CN1CCC[C@H]1CCn1ccc2cc(NC(=N)c3cccs3)ccc21`, the results for the IC50 in assay [1] and in assay [2] were 1.92 µM and 17 µM, respectively.

Take `CN1CCCCC1CCn1ccc2cc(NC(=N)c3cccs3)ccc21` (stereo not drawn): the IC50 in assay [2] was 9.8 µM.

In the case of `CN1CCCC1CCn1ccc2cc(NC(=N)c3cccs3)ccc21` (racemic), the IC50 in assay [2] turned out to be 14 µM.

As for `CN1CCC[C@@H]1CCn1ccc2cc(NC(=N)c3cccs3)ccc21`, the values for the IC50 in assay [1] and in assay [2] were 3.37 µM and 22 µM, respectively.

For the compound `CN(C)CCn1ccc2cc(NC(=N)c3cccs3)ccc21`, the IC50 in assay [2] amounted to 15.7 µM.

As to `N=C(Nc1ccc2c(ccn2CCCN2CCOCC2)c1)c1cccs1`, the IC50 in assay [2] is 41.6 µM.

Regarding `N=C(Nc1ccc2c(ccn2CCCNC2CC2)c1)c1cccs1`, the IC50 in assay [2] is 34 µM.

For `N=C(Nc1ccc2c(ccn2CCN2CCCCC2)c1)c1cccs1`, the IC50 in assay [2] amounted to 4.61 µM.

For `CN1CCCC(n2ccc3cc(NC(=N)c4ccco4)ccc32)CC1` (single isomer, unassigned; (-)), the IC50 in assay [2] turned out to be 20 µM.

On to `N=C(Nc1ccc2c(ccn2CCCNC23CC4CC(CC(C4)C2)C3)c1)c1cccs1`, for which the IC50 in assay [2] was determined as 18 µM.

Turning to `CN1CCCC(n2ccc3cc(NC(=N)c4ccco4)ccc32)CC1` (stereo in doubt; (+)-15), the IC50 in assay [2] was 73 µM.

These data come from ChEMBL document CHEMBL1821699, “1,5-Disubstituted indole derivatives as selective human neuronal nitric oxide synthase inhibitors” (Bioorg Med Chem Lett, 2011).
